Columns and labels:
[1] = tested on: alkaline phosphatase (ALP); conditions: glycine-NaOH buffer, MgCl2, 37°C; no inhibitor; tissue homogenate supernatant
[2] = tested on: acid phosphatase (ACP); conditions: citrate acid buffer, 37°C; no inhibitor; tissue homogenate supernatant
[3] = tested on: T1, acetylcholinesterase (AChE); assay: Ellman assay, […] nm, Lineweaver-Burk; assay type: biochemical, Lymnaea acuminata; conditions: pH 8.0, 25°C; no inhibitor; tissue homogenate supernatant
T1 construct: native, crude nervous tissue homogenate supernatant (1000 g), not purified

[4] = biological target: T2, acid phosphatase (ACP); assay: 4-nitrophenol release, […] nm; assay type: biochemical, Lymnaea acuminata; conditions: 4-nitrophenyl phosphate, citrate acid buffer, 37°C, 15 min preincubation at 25°C, tissue homogenate supernatant
T2 construct: native, crude nervous tissue homogenate supernatant (5000 g), not purified; isoenzyme not identified

[5] = biological target: T1, acetylcholinesterase (AChE); assay: Ellman assay, […] nm; assay type: biochemical, Lymnaea acuminata; conditions: acetylthiocholine iodide, pH 8.0, 25°C, 15 min preincubation; tissue homogenate supernatant; competitive noncompetitive
[6] = biological target: T3, alkaline phosphatase (ALP); assay: 4-nitrophenol release, […] nm; assay type: biochemical, Lymnaea acuminata; conditions: 4-nitrophenyl phosphate, glycine-NaOH buffer, MgCl2, 37°C, 15 min preincubation at 25°C, tissue homogenate supernatant
T3 construct: native, crude nervous tissue homogenate supernatant (5000 g), not purified; isoenzyme not identified

Compound: O=[N+]([O-])c1ccc(OP(=O)(O)O)cc1 [4-nitrophenyl phosphate]
- Km [1]: 20 µM
- Km [2]: 13.7 µM

Compound: CC(=O)SCC[N+](C)(C)C [acetylthiocholine iodide]
- Km [3]: 317 µM

Compound: C=CCc1cc(OC)c2c(c1)OCO2 [myristicin, 4-methoxy-6-(2-propenyl)-1,3-benzodioxole]
- IC50 ([4]; competitive): 70 µM
- IC50 [5]: 30 µM
- IC50 ([6]; uncompetitive): 60 µM

Compound: CCCCCCCCCCCCCC(=O)OCC(COC(=O)CCCCCCCCCCCCC)OC(=O)CCCCCCCCCCCCC [trimyristin, 1,2,3-tritetradecanoylglycerol]
- IC50 ([4]; uncompetitive): 160 µM
- IC50 [5]: 110 µM
- IC50 ([6]; competitive noncompetitive): 180 µM
